According to patent US20210130339A1, “COMPOUNDS” (GLAXOSMITHKLINE INTELLECTUAL PROPERTY DEVELOPMENT LIMITED, priority 2017, published 2021):
Where “and” joins values, the source holds several entries; their conditions need not be identical. Equal values may be shown once.

Assays:
[1] = target: T1, Full length G2019 human LRRK2 (Homo sapiens, UniProt Q5S007); experiment: Full length G2019 human LRRK2 Inhibition Mass Spectrometry assay; format: biochemical; settings: LRRKtide substrate, RapidFire mass spectrometry; read-out: pIC50 in the Full length G2019 human LRRK2 Inhibition Mass Spectrometry assay (converted)
T1 construct: purified recombinant Full length Flag-LRRK2 in assay buffer; made in house; host or cells: HEK293 6E cells transduced with BacMam virus (virus generated in Sf9 cells)
T1 sequence (Q5S007 with tags, fused parts or gaps R50H): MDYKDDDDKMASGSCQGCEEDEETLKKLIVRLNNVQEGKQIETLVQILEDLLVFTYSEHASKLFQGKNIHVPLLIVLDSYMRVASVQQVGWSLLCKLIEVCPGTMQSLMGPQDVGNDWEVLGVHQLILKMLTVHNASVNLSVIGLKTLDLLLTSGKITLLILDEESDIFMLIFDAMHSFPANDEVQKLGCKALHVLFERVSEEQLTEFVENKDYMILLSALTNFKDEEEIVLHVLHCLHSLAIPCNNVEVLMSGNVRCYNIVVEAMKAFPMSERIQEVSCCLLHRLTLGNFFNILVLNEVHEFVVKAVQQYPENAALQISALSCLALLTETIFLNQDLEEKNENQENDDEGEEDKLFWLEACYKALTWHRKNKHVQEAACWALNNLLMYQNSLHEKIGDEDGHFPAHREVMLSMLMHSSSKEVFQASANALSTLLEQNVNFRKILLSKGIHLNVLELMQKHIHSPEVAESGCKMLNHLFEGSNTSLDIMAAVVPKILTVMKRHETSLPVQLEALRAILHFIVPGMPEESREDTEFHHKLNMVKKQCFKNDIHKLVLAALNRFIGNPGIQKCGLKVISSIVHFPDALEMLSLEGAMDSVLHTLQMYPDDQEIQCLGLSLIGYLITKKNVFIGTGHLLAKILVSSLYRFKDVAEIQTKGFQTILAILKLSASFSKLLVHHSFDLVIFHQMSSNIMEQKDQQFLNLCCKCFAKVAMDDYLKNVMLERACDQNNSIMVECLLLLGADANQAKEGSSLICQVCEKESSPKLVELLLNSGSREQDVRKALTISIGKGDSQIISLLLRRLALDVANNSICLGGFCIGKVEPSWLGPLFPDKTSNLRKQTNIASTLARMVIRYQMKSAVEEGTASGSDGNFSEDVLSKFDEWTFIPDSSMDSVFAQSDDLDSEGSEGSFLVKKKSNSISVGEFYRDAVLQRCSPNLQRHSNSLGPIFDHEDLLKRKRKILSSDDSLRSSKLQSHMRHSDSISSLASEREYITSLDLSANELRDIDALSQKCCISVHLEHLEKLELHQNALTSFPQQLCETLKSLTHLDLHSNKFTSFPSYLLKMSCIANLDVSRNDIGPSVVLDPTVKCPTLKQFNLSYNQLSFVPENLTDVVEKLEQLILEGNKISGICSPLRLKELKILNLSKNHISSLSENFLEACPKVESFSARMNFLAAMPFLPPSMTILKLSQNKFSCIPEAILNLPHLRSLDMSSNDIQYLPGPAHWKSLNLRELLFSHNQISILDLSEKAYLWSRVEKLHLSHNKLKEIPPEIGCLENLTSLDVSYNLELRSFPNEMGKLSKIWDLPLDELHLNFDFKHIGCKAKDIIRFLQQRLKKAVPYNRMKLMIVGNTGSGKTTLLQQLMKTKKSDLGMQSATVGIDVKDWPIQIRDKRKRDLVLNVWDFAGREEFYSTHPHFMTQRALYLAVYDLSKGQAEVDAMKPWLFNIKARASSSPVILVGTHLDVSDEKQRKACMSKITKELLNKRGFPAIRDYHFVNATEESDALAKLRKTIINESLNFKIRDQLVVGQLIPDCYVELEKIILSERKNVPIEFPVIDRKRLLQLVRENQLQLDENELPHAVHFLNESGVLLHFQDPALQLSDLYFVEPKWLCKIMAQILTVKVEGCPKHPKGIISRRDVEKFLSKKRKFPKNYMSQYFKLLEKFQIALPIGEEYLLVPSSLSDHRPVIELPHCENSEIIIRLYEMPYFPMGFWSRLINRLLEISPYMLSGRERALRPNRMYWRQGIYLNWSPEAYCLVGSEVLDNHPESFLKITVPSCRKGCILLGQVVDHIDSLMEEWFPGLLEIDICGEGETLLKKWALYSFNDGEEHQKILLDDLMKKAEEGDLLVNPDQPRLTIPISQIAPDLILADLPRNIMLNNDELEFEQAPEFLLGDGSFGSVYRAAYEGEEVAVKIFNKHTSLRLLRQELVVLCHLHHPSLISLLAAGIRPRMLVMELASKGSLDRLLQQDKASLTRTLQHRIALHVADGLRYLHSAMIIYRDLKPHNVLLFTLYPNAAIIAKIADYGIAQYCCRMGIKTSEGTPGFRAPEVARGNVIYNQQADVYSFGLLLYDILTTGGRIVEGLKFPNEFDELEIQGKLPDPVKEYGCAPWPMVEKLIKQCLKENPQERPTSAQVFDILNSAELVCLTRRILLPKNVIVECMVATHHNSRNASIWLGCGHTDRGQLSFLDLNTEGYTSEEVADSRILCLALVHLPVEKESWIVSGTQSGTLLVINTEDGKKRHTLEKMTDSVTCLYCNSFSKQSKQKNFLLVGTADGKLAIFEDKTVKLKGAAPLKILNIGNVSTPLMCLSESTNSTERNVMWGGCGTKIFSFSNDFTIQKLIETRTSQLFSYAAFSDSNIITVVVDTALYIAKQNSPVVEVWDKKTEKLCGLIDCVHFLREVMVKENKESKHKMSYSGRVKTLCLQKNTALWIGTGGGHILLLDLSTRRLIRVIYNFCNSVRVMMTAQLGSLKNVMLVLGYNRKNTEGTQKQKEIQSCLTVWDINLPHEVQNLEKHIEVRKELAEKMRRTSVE
Method: a. Full Length G2019 Human LRRK2 Inhibition Mass Spectrometry Assay
This assay for Leucine Rich Repeat Kinase 2 (LRRK2) inhibition is based on the direct measurement of the peptide ‘LRRKtide’ (LRRKtide: RLGRDKYKT*LRQIRQ and “*” refers to the site of phosphorylation.) and phosphorylated ‘LRRKtide’ using a high throughput RapidFire mass spectrometry assay. Inhibitors are compounds that reduce the conversion of LRRKtide to phospho-LRRKtide.
HEK293 6E cells were incubated in a 37° C. incubator with a humidified atmosphere of 5% CO2 on an orbital shaker rotating at 110 rpm. On the day of transduction, the cell viability was higher than 98% and the cell density was in the range of 1×10^6˜1.5×10^6 cells/ml. HEK293 6E cells were centrifuged at 1,000 rpm for 10 min, and then the cells were resuspended in fresh Freestyle 293 expression medium (Invitrogen:12338) with 0.1% F-68 (Invitrogen:24040-032) but without antibiotics (G418) at density of 1×10^6 cells/ml. BacMam virus with Flag-hu LRRK2 (genotypically normal) gene was centrifuged at 40,000 g for 2 hours, then resuspended in fresh Freestyle 293 expression medium. The resuspended virus was added into the cells in at MOI of 10. The cells were incubated in a 37° C. incubator with a humidified atmosphere of 5% CO2 in air on an orbital shaker rotating at 110 rpm. Cultures were harvested at approximately 48 hours post-transduction by centrifugation at 4,000 rpm for 20 min and pellets were frozen for purification.
The suspended cells were lysed by sonication on ice for 30 min (2 secs on/4 sec off, 20% amplitude), and centrifuged at 10,000 rpm for 30 minutes at 4° C. The supernatant was incubated with 1 mL per litre of cell culture of anti-Flag magnetic beads (Sigma-Aldrich: M8823) at 4° C. for 3 hours, then the beads were washed by 5 mL (5 column volume) binding buffer (50 mM Tris pH7.5@ 4C, 500 mM NaCl, 0.5 mM EDTA, 0.1% TritonX-100, 10% glycerol, freshly add 2 mM DTT) for three times. The Flag tagged LRRK2 proteins were eluted by Elution buffer (50 mM Tris pH7.5@ 4C, 500 mM NaCl, 0.5 mM EDTA, 0.1% TritonX-100, 10% glycerol, freshly add 2 mM DTT, 250 ug/ml Flag peptide (Sigma-Aldrich:F3290)) at 4° C. for 2 hours. Flag peptide was removed by Zeba Spin Desalting Columns, 7K MWCO (Thermo-Fisher: 89893) and the buffer of eluted LRRK2 proteins was exchanged into Storage Buffer (50 mM Tris pH7.5@4C, 150 mM NaCl, 0.5 mM EDTA, 0.02% Triton X-100, 2 mM DTT and 50% Glycerol) using Amicon Ultra Centrifugal Filter Units (100 kD) (Merck: UFC910096). Fractions containing LRRK2 proteins were pooled, aliquoted and stored at −80° C. Protein concentration was determined by Bradford protein assay, and protein purity was analyzed by NuPAG Novex 4-12% Bis-Tris Protein Gels (Invitrogen: NP0322BOX).
• 1) A 10 mM test compound was dissolved in 100% DMSO and serially diluted 1 in 4. 100 nL of this dilution series was then added to a 384 well, v bottom polypropylene plate, excluding columns 6 and 18. 100 nL of DMSO was added to columns 6 and 18 as controls wells. Assay dilution gave a top final assay concentration of test compound of 100 μM • 2) 50 μl of 1% formic acid in laboratory grade water was added to column 18 using a multidrop combi dispenser to act as a pre stopped assay control. • 3) 5 μl of ‘enzyme solution’ containing 50 nM of purified recombinant Full length Flag-LRRK2 in assay buffer (50 mM Hepes (pH 7.2), 10 mM MgCl2, 150 mM NaCl, 5% glycerol, 0.0025% triton X-100 and 1 mM DTT) was added to all wells using a multidrop combi dispenser, giving a final assay concentration of 25 nM LRRK2 enzyme. […] Test plates were then incubated for 30 minutes at room temperature. • 4) 5 μl ‘substrate solution’ containing 50 uM LRRKtide peptide substrate and 4 mM ATP was added to all wells of the plate using a multidrop combi dispenser giving a final assay concentration of 25 uM LRRKtide and 2 mM ATP. Test plates were then incubated for 1 hour at room temperature. […]

[2] = target: T2, recombinant full length LRRK2 (Homo sapiens, UniProt Q5S007); experiment: Recombinant cellular LRRK2 AlphaScreen assay; format: cell-based; settings: LRRK2 Ser935 phosphorylation, SH-SY5Y cells over-expressing recombinant full length LRRK2; read-out: pIC50 in the recombinant cellular LRRK2 AlphaScreen assay (converted)
T2 construct: A BacMam virus expressing full length recombinant LRRK2 was purchased from Invitrogen; host or cells: SH-SY5Y human neuroblastoma cells transduced with BacMam LRRK2 virus (MOI 50)
T2 sequence (Q5S007 whole entry): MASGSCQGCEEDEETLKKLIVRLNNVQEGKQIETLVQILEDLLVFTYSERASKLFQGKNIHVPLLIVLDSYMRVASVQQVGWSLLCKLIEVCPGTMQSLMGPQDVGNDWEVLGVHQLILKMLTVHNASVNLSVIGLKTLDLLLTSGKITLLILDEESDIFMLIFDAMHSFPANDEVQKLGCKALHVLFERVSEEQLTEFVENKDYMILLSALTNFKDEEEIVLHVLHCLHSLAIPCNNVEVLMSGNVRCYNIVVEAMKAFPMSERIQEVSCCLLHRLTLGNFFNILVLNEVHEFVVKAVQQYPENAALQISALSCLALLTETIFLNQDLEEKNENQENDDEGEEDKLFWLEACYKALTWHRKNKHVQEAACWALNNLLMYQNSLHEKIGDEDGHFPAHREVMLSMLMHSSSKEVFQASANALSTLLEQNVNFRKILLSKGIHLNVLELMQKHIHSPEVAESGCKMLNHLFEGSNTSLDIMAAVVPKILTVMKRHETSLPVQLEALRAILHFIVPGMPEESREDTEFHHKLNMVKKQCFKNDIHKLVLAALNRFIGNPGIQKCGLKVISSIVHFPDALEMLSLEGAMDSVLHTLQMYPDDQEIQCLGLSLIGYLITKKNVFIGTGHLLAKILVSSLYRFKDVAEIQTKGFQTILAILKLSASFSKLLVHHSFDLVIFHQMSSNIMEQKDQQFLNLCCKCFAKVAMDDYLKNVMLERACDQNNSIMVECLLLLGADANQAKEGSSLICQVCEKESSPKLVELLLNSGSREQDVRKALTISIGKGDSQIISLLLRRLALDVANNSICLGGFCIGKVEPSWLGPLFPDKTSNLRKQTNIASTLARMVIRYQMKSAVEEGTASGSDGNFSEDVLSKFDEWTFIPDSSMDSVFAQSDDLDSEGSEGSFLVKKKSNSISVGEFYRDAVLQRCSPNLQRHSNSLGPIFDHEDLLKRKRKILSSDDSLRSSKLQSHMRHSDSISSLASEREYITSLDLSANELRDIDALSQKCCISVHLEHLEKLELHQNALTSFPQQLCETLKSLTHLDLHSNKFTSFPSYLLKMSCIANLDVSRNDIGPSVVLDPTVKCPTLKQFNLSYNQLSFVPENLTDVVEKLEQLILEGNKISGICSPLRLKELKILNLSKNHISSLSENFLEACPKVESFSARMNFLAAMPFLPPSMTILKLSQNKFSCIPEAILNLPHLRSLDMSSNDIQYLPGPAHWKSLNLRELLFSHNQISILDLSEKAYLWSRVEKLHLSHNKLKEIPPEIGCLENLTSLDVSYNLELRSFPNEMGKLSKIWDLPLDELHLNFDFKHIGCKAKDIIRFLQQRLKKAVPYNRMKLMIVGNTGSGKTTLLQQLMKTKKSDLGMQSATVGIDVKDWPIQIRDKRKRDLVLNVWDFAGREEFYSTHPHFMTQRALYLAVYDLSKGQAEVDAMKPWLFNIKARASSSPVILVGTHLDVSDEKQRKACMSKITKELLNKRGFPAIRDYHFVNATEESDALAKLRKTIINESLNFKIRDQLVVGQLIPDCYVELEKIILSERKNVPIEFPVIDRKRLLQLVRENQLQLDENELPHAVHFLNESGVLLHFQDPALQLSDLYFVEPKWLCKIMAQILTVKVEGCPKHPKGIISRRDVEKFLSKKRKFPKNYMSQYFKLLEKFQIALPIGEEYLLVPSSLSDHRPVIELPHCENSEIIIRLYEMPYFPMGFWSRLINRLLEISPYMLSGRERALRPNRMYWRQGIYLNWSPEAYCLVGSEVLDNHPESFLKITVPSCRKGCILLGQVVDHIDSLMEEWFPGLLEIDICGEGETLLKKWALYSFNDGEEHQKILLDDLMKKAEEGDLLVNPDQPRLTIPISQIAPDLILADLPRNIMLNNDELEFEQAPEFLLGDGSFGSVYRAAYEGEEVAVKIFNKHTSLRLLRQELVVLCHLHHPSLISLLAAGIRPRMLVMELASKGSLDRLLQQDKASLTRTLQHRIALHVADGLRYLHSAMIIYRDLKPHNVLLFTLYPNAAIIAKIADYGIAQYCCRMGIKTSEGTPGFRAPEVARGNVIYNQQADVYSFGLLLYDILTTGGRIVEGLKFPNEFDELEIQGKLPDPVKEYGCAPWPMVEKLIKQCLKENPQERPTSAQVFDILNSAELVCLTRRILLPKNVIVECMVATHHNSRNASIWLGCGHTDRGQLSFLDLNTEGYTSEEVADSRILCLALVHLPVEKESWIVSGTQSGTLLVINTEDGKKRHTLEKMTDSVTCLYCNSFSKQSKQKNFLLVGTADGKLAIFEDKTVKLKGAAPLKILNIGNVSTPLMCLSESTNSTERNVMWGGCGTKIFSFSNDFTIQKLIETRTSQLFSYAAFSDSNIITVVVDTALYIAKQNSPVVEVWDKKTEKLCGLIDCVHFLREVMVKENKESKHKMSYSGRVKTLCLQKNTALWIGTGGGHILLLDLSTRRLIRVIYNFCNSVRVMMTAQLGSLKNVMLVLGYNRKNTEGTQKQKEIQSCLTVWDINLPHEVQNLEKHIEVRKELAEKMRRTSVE
Excerpt: b. Recombinant Cellular LRRK2 AlphaScreen Assay
To determine the activity of compounds against LRRK2 kinase activity in cells, the observed LRRK2 kinase-dependent modulation of LRRK2 Ser 935 phosphorylation (Dzamko et al., 2010, Biochem. J. 430: 405-413) was utilized to develop a quantitative 384 well plate-based immunoassay of LRRK2 Ser935 phosphorylation in the human neuroblastoma cell line SH-SY5Y, engineered to over-express recombinant full length LRRK2 protein. A BacMam virus expressing full length recombinant LRRK2 was purchased from Invitrogen and amplified by inoculation of SF-9 cells at MOI 0.3 for 4-5 days in Sf-900 III SFM medium supplemented with 3% fetal bovine serum. Infected cell cultures were then centrifuged at 2000 g for 20 minutes, viral supernatant titer determined by anti-gp64 plaque assay and stored at 4° C. Affinity-purified anti-phospho LRRK2 Ser935 sheep polyclonal antibody (Dzamko et al., 2010, Biochem. J. 430: 405-413) was biotinylated by standard methods (PerkinElmer). Anti-LRRK2 rabbit polyclonal antibody was purchased from Novus Biologicals. AlphaScreen Protein A IgG Kit (including acceptor and donor beads) was purchased from Perkin Elmer. SH-SY5Y cells were grown in DMEM/F12 medium with 10% dialysed fetal bovine serum and harvested by treatment with 0.5% trypsin-EDTA for 5 minutes at 37° C. followed by centrifugation at 1000 rpm for 4 minutes. The cell pellet was resuspended in Opti-MEM reduced serum media (Invitrogen) at 200,000 cells/ml and mixed with the BacMam LRRK2 virus at MOI=50. 50 μl cell solutions were then dispensed to each well of a 384-well plate and incubated at 37° C., 5% CO2 for 24 hours. Serial dilutions of test compounds were prepared in Opti-MEM reduced serum media (Invitrogen) and 5.6 ul transferred from compound plate to cell assay plate to achieve a top final assay concentration of 10 uM. DMSO was used in certain wells as controls. Cells were incubated at 37° C., 5% CO2 for 60 minutes. The medium was then removed and cells lysed by addition of 20 ul cell lysis buffer (Cell Signaling Technology) and incubation at 4° C. for 20 minutes. 10 ul of antibody/acceptor bead mix [(1/1000 biotinylated-pS935 LRRK2 antibody, 1/1000 total-LRRK2 antibody, 1/100 Acceptor beads in AlphaScreen detection buffer (25 mM Hepes (pH 7.4), 0.5% Triton X-100, 1 mg/ml Dextran 500 and 0.1% BSA)] was then added to each well and plates incubated for 2 hours at ambient temperature in the dark. 10 μl of donor beads solution (1/33.3 donor beads in AlphaScreen detection buffer) was then added to each well. Following incubation for a further 2 hours at ambient temperature in the dark, plates were read on an EnVision™ plate reader at emission 520-620 nm with excitation 680 nm. Dose response curve data was based on sigmoidal dose-response model.

Row | SMILES | IC50 [1] | IC50 [2]
1 | Cc1nc(N2CC(C)(O)C2)cc(-n2ncc3cc(Cl)c(C4CCN(C5CCOC5)CC4)cc32)n1 (single isomer, unassigned) [Example E128, 1-(6-(5-chloro-6-(1-(tetrahydrofuran-3-yl)piperidin-4-yl)-1H-indazol-1-yl)-2-methyl-pyrimidin-4-yl)-3-methylazetidin-3-ol] | ≤ 1000 nM | ≤ 1000 nM
2 | Cc1nc(N2CCOC(C(C)O)C2)cc(-n2ncc3cc(C)c(C4CCN(C5CCOC5)CC4)cc32)n1 (single isomer, unassigned) [Example E136, 1-(4-(2-methyl-6-(5-methyl-6-(1-(tetrahydrofuran-3-yl)piperidin-4-yl)-1H-indazol-1-yl)pyrimidin-4-yl)morpholin-2-yl)ethanol] | ≤ 100 nM | ≤ 1000 nM
3 | Cc1nc(N2CCO[C@H](CO)C2)cc(-n2ncc3cc(C)c(C4CCN(C5CCOC5)CC4F)cc32)n1 (single isomer, unassigned) [Example E106] | ≤ 100 nM | ≤ 1000 nM
4 | Cc1nc(N2CC(O)C2)cc(-n2ncc3cc(C)c(C4CCN(C5CCOC5)CC4F)cc32)n1 (single isomer, unassigned) [Example E13, cis-1-(6-(6-(3-Fluoro-1-(tetrahydrofuran-3-yl)piperidin-4-yl)-5-methyl-1H-indazol-1-yl)-2-methylpyrimidin-4-yl)azetidin-3-ol] | ≤ 1000 nM | ≤ 100 nM
5 | Cc1nc(N[C@H]2C[C@@H](O)C2)cc(-n2ncc3cc(C)c(C4CCN(C5CCOC5)CC4)cc32)n1 (single isomer, unassigned) [Example E134, Cis-3-((2-methyl-6-(5-methyl-6-(1-(tetrahydrofuran-3-yl)piperidin-4-yl)-1H-indazol-1-yl)pyrimidin-4-yl)amino)cyclobutanol] | ≤ 100 nM | ≤ 100 nM
6 | COc1nc(N2CCO[C@@H](CO)C2)cc(-n2ncc3cc(C)c(C4CCN(C5CCOC5)CC4F)cc32)n1 (single isomer, unassigned) [Example E118] | ≤ 10 nM | ≤ 10 nM
7 | Cc1nc(N2CCOC[C@@H]2CO)cc(-n2ncc3cc(C)c(C4CCN(C5CCOC5)CC4)cc32)n1 (single isomer, unassigned) [Example E113] | ≤ 1000 nM | ≤ 1000 nM
8 | [2H]c1nn(-c2cc(N3CCO[C@@H](CO)C3)nc(C)n2)c2cc(C3CCN([C@H]4CCOC4)CC3)c(C)cc12 [Example E95, ((R)-4-(6-(3-deuterium-5-methyl-6-(1-((S)-tetrahydrofuran-3-yl)piperidin-4-yl)-1H-indazol-1-yl)-2-methylpyrimidin-4-yl)morpholin-2-yl)methanol] | ≤ 100 nM and 39.8 nM | ≤ 1000 nM
9 | COc1nc(N2CCOCC2)cc(-n2ncc3cc(C)c(C4CCN(C5CCOC5)CC4F)cc32)n1 (single isomer, unassigned) [Example E116, Cis-4-(6-(6-(3-fluoro-1-(tetrahydrofuran-3-yl)-piperidin-4-yl)-5-methyl-1H-indazol-1-yl)-2-methoxypyrimidin-4-yl)morpholine] | ≤ 100 nM | ≤ 100 nM
10 | [2H]C1(N2CCC(c3cc4c(cnn4-c4cc(N5CCO[C@H](CO)C5)nc(C)n4)cc3C)CC2)CCOC1 (single isomer, unassigned) [Example E34] | ≤ 1000 nM and 63.1 nM | ≤ 100 nM and 100 nM
11 | Cc1nc(N2CCO[C@@H](CO)C2)cc(-n2ncc3cc(C)c(C4CCN(C5CCOC5)CC4F)cc32)n1 (single isomer, unassigned) [Example E102] | ≤ 100 nM | ≤ 1000 nM
12 | Cc1nc(N2CCOC(C(C)O)C2)cc(-n2ncc3cc(C)c(C4CCN(C5CCOC5)CC4)cc32)n1 (single isomer, unassigned) [Example E141, 1-(4-(2-methyl-6-(5-methyl-6-(1-(tetrahydrofuran-3-yl)piperidin-4-yl)-1H-indazol-1-yl)pyrimidin-4-yl)morpholin-2-yl)ethanol] | ≤ 100 nM | ≤ 1000 nM
13 | COc1nc(N2CCO[C@@H](CO)C2)cc(-n2ncc3cc(C)c(C4CCN(C5CCOC5)CC4F)cc32)n1 (single isomer, unassigned) [Example E117] | ≤ 1000 nM | ≤ 10 nM
14 | COc1nc(N2CCOCC2)cc(-n2ncc3cc(C)c(C4CCN(C5CCOC5)CC4F)cc32)n1 (single isomer, unassigned) [Example E115, Cis-4-(6-(6-(3-fluoro-1-(tetrahydrofuran-3-yl)-piperidin-4-yl)-5-methyl-1H-indazol-1-yl)-2-methoxypyrimidin-4-yl)morpholine] | ≤ 10 nM | ≤ 10 nM
15 | Cc1nc(N2CCOC(C(C)O)C2)cc(-n2ncc3cc(C)c(C4CCN(C5CCOC5)CC4)cc32)n1 (single isomer, unassigned) [Example E140, 1-(4-(2-methyl-6-(5-methyl-6-(1-(tetrahydrofuran-3-yl)piperidin-4-yl)-1H-indazol-1-yl)pyrimidin-4-yl)morpholin-2-yl)ethanol] | ≤ 100 nM | ≤ 1000 nM
